The conditions of data set [1]: both, mouse, in vivo, 1 min.
A further data set has as its system MDA-MB-231. The data set is described as follows: Human cancer cell growth inhibition assay (ATP assay), MDA-MB-231. The class given is cell-based. The following applies: Homo sapiens, MDA-MB-231, 96 h; 4 days; Means±SEM from three independent experiments; read-out: MDA-MB-231, IC50.
The next data set addresses T1, human TRPV3 (Homo sapiens, UniProt Q8NET8).
T1 construct: expressed in transfected cells; host or cells: overexpressing cells
T1 sequence (Q8NET8 1-790): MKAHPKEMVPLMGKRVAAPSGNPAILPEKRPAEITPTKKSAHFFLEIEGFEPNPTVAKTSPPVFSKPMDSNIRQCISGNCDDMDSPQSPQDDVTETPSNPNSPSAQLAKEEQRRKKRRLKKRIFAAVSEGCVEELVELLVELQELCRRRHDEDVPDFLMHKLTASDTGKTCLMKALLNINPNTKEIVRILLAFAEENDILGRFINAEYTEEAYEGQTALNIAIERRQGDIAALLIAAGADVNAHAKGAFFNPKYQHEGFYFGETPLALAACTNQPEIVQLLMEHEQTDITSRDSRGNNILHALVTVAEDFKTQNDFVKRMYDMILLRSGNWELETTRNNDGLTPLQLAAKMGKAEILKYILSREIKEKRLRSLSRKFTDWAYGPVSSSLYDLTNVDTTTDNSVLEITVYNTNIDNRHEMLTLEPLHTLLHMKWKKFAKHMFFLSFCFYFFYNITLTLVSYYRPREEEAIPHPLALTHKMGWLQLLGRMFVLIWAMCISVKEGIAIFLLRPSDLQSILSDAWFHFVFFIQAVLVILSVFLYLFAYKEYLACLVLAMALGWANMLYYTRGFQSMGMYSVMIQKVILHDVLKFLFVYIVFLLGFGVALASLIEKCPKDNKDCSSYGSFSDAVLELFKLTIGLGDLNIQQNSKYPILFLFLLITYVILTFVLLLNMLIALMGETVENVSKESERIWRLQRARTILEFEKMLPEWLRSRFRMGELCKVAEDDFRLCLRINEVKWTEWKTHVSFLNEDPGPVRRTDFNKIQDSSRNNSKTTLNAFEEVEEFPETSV
Nature of the data set: In vitro Ca2+ flux counter-screen in human TRPV3 overexpressing cells. It is filed as cell-based. The following applies: counter-screen; read-out: TRPV3 EC50.

A further data set has as its system NCI-H460. Nature of the data set: Human cancer cell growth inhibition assay (ATP assay), NCI-H460. It is filed as cell-based. The following applies: Homo sapiens, NCI-H460, 96 h; 4 days; Means±SEM from three independent experiments; read-out: NCl-H460, IC50.
A further data set is described as follows: In vivo mouse PK. Conditions: IV 0.4 mg/kg, C57BL6 mouse.
The target of the next data set is T2, human TRPA1 (Homo sapiens, UniProt O75762).
T2 construct: expressed in transfected cells; host or cells: overexpressing cells
Nature of the data set: In vitro Ca2+ flux counter-screen in human TRPA1 overexpressing cells. It is filed as cell-based. Conditions: counter-screen; read-out: TRPA1 EC50.

A short description of data set [2]: Mouse liver microsome stability. Conditions: liver microsomes, C57BL6 mouse liver microsome. It is filed as in vitro ADME.
For a further data set, the target named is T3, human TRPV1 (Homo sapiens, UniProt Q8NER1).
T3 construct: DYK (FLAG) tag from vector pcDNA3.1+/C-(K)DYK (C); host or cells: FreeStyle 293-F cells (HEK 293), transient transfection
The data set is described as follows: In vitro Ca2+ flux assay in human TRPV1 transfected HEK 293 cells. It is filed as cell-based. The following applies: read-out: TRPV1 EC50.

In a further data set the test system is MDA-MB-231 cell invasion. Nature of the data set: Cancer cell invasion assay, MDA-MB-231. It is filed as cell-based, human. Conditions: 24 h. The gist of the method: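 Transwell inserts were coated with membrane matrix gel (0.5-0.6 mg/mL) and loaded with 1×10^5 human cancer cells in RPMI 1640, with 10% FBS medium below as attractant. Compound or DMSO went into both compartments for 24 h at 37 °C. Invaded cells were fixed, crystal-violet stained, counted in 5 random fields and expressed as % of DMSO control.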

On the set-up of data set [3]: decrease in the second phase of the formalin test: dose or concentration left out as unconfirmed. Conditions: intraplantar.
In the next data set the test system is OVCAR-8. Nature of the data set: Human cancer cell growth inhibition assay (ATP assay), OVCAR-8. It is filed as cell-based. Conditions: Homo sapiens, OVCAR-8, 96 h; 4 days; Means±SEM from three independent experiments; read-out: OVCAR-8, IC50.
A short description of data set [4]: Operant Pain Tolerance Assay. The following applies: intraplantar. The class given is in vivo. As for the experimental part: Model 3—The ability of YB-16 to increase pain tolerance was tested using a newly published Operant Pain Tolerance Assay (eNeuro 2020, 7, ENEURO.0210-19.2020). In the assay, mice were trained to seek a sucrose reward that was on a hot 42° C. plate (versus no reward on a neutral 30° C. plate). It was noticed that intraplantar YB-16 treated mice with paw inflammatory injury [induced by Complete Freund's adjuvant (CFA) 24 hrs prior to treatment] trended to spend 145% more time on the hot side of the assay but not necessarily additional time near the sucrose bottle compared to vehicle treated mice (FIG. 10B).

A further data set has as its target T4, TRPV1 (Mus musculus, UniProt Q704Y3).
T4 construct: DRG was isolated from male and female mice expressing GCaMP6f in neurons; endogenous in cells; host or cells: dissociated primary DRG neurons from GCaMP6f-expressing mice
The data set is described as follows: Ca2+ imaging of primary mouse dorsal root ganglion (DRG) neurons, TRPV1 desensitization. The class given is cell-based. The following applies: then capsaicin 0.5 μM.

For data set [5] the following is noted: SubQ 6 mg/kg.
Setting [6] is: Means±SEM from three independent experiments.
The mark [7] stands for this setting: first treatment capsaicin 0.5 μM, YB-11 0.5 μM or YB-16 1.0 μM, paired t-test.

“Also recorded” adds a separate entry of the source. Read-outs that look alike come from different tables or passages of the source.

Experimental findings from patent US20240116856A1 (Young BioPharma, LLC, priority 2020, published 2024) are described below.

T3 sequence (Q8NER1 whole entry): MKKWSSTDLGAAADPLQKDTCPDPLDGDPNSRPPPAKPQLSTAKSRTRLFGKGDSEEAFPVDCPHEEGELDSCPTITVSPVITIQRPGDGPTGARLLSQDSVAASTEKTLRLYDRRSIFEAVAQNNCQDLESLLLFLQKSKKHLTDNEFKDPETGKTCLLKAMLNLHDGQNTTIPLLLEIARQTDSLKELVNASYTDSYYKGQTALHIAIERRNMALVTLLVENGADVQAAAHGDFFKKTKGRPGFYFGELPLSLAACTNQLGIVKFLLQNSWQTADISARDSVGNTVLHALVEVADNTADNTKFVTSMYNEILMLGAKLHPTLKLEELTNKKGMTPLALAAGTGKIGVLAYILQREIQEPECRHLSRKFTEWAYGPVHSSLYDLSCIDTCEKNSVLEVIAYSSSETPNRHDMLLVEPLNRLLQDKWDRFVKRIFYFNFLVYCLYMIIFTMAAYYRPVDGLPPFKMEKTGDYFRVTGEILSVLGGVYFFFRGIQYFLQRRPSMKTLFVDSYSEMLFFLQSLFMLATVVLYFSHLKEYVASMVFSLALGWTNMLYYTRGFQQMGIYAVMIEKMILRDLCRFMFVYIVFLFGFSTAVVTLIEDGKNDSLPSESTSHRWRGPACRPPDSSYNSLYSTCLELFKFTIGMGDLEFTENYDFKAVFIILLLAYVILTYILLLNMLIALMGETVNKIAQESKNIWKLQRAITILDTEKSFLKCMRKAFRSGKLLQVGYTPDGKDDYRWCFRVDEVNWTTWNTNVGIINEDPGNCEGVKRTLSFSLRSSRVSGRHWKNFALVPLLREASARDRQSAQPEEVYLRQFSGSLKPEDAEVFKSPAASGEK
T4 sequence (Q704Y3 whole entry): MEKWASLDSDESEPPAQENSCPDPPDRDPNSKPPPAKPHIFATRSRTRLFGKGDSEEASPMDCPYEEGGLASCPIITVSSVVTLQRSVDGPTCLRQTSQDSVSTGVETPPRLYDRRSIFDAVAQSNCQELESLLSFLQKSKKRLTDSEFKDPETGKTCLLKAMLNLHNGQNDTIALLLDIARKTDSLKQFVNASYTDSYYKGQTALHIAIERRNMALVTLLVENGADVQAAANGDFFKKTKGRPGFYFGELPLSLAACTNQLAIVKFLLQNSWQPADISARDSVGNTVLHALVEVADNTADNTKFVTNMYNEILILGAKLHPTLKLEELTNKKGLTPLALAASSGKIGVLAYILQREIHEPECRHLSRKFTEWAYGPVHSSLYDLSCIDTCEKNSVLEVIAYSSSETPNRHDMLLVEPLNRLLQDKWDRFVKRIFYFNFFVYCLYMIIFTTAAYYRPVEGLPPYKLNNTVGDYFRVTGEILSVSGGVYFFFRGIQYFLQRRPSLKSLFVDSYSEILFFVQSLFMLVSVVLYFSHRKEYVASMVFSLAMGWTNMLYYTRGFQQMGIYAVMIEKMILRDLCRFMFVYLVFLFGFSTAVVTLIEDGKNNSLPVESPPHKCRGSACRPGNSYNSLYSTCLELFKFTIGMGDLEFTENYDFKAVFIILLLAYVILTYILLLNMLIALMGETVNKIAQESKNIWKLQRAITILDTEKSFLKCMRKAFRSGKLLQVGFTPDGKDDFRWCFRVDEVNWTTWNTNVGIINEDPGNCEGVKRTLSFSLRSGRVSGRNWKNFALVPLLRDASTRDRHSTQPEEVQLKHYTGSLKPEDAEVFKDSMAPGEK
T2 sequence (O75762 whole entry): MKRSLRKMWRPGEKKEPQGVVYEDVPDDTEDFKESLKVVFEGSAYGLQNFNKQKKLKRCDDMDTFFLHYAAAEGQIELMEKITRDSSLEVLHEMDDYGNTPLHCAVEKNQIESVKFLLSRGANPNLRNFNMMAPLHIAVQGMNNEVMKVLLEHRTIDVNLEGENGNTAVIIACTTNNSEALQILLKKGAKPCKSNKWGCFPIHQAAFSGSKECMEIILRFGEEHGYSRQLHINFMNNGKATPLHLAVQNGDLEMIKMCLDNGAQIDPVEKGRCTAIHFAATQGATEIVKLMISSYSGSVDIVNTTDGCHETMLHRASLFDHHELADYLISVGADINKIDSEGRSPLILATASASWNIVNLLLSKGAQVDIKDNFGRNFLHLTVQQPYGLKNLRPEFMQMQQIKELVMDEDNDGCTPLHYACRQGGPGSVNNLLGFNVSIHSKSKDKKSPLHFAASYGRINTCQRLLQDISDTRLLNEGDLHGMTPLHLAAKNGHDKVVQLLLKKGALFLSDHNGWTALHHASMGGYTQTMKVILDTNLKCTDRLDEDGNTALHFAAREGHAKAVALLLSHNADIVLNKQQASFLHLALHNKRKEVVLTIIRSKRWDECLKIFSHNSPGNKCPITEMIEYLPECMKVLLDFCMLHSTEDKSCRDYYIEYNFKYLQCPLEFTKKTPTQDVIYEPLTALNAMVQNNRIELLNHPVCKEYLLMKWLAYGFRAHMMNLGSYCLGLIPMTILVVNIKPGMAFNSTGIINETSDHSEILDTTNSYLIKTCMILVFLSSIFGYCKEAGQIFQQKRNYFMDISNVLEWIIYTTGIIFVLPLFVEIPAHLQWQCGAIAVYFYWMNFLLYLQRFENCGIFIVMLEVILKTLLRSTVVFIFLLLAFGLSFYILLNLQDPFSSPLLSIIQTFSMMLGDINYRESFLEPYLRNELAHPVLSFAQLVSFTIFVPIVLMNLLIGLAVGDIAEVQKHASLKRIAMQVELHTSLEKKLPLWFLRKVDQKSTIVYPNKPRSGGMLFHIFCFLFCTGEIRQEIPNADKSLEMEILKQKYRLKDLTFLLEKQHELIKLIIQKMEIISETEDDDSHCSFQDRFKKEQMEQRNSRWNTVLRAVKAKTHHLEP

In turn, `COc1cc(CNC(=O)CCCC/C=C/C(C)C)ccc1N` [YB-2] returned an MPP in data set [1] of 0.233 mg/mL. Also, the IC50 in the data set with MDA-MB-231 was 342 ± 30 µM; in the data set on NCI-H460, 350 ± 25 µM; with OVCAR-8 it was 200 ± 22 µM. For the same compound, the EC50 on human TRPV3 is more than 10 µM; on human TRPA1 it was more than 10 µM; at human TRPV1 (setting [6]), less than 0.1 µM; at human TRPV1 (Table 3 comparison, YB-2 tested as a HCl salt), 0.082 µM. Further, the “λz” value in “In vivo mouse PK” is 4.1 h⁻¹. Also, the CLint scaled at 2 μM in data set [2] is 1780 mL/min/kg. Moreover, the “inhibition of MDA-MB-231 cell invasion” value in the data set with MDA-MB-231 cell invasion is listed as “dose-dependently inhibited”. Also, in data set [3], the “animal death and sedation in formalin test” value is “No mice treated with YB-16, YB-11 or YB-2 died or experienced sedative reaction”. Besides, the “effect in the second phase of the formalin test” value in [3] (2 hr prior to formalin) is on record as “significant analgesic effect in the second phase for male mice only”. In data set [3] (2 hr prior to formalin), the “effect on formalin spontaneous pain-like behavior” value is “did not reduce formalin behavior at any dose tested”.
Take `COCCOCCOCCC(=O)Oc1ccc(CC(=O)N/C=C/c2ccc(C(F)(F)F)cc2)cc1OC` [YB-16]: the MPP in data set [1] turned out to be 0.302 mg/mL. Also, the IC50 with MDA-MB-231 was more than 100 µM; with NCI-H460, more than 100 µM; in the data set with OVCAR-8, 16 µM. The EC50 at human TRPV3 is more than 10 µM; at human TRPA1, more than 10 µM; on human TRPV1 (setting [6]), 0.93 µM. In data set [4], the “sedation in operant pain tolerance assay” value was “inflammatory injury with no sedation”. Further, in [4] (paw inflammatory injury (CFA)), the “sensitivity to hot plate after inflammatory injury” value was “trended to reduce sensitivity to hot plate after inflammatory injury compared to vehicle; also recorded: trended to increase time in a 42 °C chamber; also recorded: Trend for reduced sensitivity to hot”. Further, the “TRPV1-sensitive neurons showing desensitization” value on TRPV1 (first treatment 1.0 μM) is recorded as 79%. Moreover, at TRPV1 (setting [7]), the “area under the curve of the Ca2+ signal of the second (capsaicin) application” value is “statistically significant reduction; also recorded: significantly reduced”. For the same compound, at TRPV1 (setting [7]), the “max Ca2+ signal of the second (capsaicin) application” value is given as “statistically significant reduction; also recorded: significantly reduced”. Further, the “MPE (maximum possible effect) increase compared to vehicle” value in [5] amounted to 270%. Moreover, in [3], the “animal death and sedation in formalin test” value was “No mice treated with YB-16, YB-11 or YB-2 died or experienced sedative reaction”. In addition, the “decrease in the second phase of the formalin test” value in data set [3] (2 hr prior to formalin) is given as 54%. For the same compound, the “reduction of formalin first phase behavior” value in data set [3] (2 hr prior to formalin) was found to be 60%.
